Source: PubChem BioAssay (NCI)
Where “and” joins values, the source holds several entries; their conditions need not be identical. Equal entries are not always repeated.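 The compound was tested at five concentrations on cells cultured in 96-well plates, with a 48-hour exposure period. GI50: concentration for 50% inhibition of growth. TGI marks complete inhibition of growth.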

Experiments:
Test in all cases: NCI-60 cell line screen, 48 h
OVCAR-4 ovarian = system: OVCAR-4 ovarian
NCI-H23 lung = system: NCI-H23 lung
IGROV1 ovarian = system: IGROV1 ovarian
SK-MEL-5 melanoma = system: SK-MEL-5 melanoma
KM20L2 colon = system: KM20L2 colon
NCI-H522 lung = system: NCI-H522 lung
LXFL 529 NSCLC = system: LXFL 529 NSCLC
T-47D breast = system: T-47D breast
MCF7 breast = system: MCF7 breast
BT-549 breast = system: BT-549 breast

Row | Compound | TGI (OVCAR-4 ovarian) | TGI (NCI-H23 lung) | TGI (IGROV1 ovarian) | TGI (SK-MEL-5 melanoma) | TGI (KM20L2 colon) | TGI (NCI-H522 lung) | TGI (LXFL 529 NSCLC) | GI50 (OVCAR-4 ovarian) | GI50 (NCI-H23 lung) [µM] | GI50 (IGROV1 ovarian) | GI50 (SK-MEL-5 melanoma) | GI50 (KM20L2 colon) | GI50 (NCI-H522 lung) | GI50 (LXFL 529 NSCLC) [µM] | GI50 (T-47D breast) [µM] | TGI (T-47D breast) [µM] | GI50 (MCF7 breast) [µM] | GI50 (BT-549 breast) [µM] | TGI (BT-549 breast) [µM] | TGI (MCF7 breast) [µM]
1 | N#CCCN(CCC#N)c1ccc(/C=C(/NC(=O)c2cc([N+](=O)[O-])ccc2Cl)C(=O)N=[N+]=[N-])cc1 | > 100 µM | > 100 µM | > 100 µM | > 100 µM | > 100 µM | > 100 µM | > 100 µM |  |  |  |  |  |  |  |  |  |  |  |  | 
2 | C/C(NNC(=O)c1ccccc1O)=C1\C=Nc2ccccc2S1 | > 100 µM | > 100 µM | > 100 µM | > 100 µM | > 100 µM | > 100 µM | > 100 µM |  |  |  |  |  |  |  |  |  |  |  |  | 
3 | CCCCCCCCSC(=O)NCCCC | > 100 µM | > 100 µM | > 100 µM | 46.6 µM | 62.5 µM | 80.4 µM | > 100 µM |  |  |  |  |  |  |  |  |  |  |  |  | 
4 | O/N=C1/CCCC/C1=C/C=C/c1ccccc1 | > 100 µM | 60.5 µM | 36.8 µM | 30.2 µM | 33.3 µM | 34.1 µM | > 100 µM |  |  |  |  |  |  |  |  |  |  |  |  | 
5 | O=C1c2c(O)cccc2C(C(=O)CCCCCC(=O)C2c3cccc(O)c3C(=O)c3c(O)cccc32)c2cccc(O)c21 | 4.61 µM and 11 µM | 1.88 µM and 12.9 µM | 6.13 µM and 28.6 µM |  | 13.1 µM and 47.6 µM |  | 2.78 µM and 14.2 µM | 5.17 µM | 3.94 | 12.5 µM | 7.96 µM | 15.4 µM | 6.72 µM | 7.58 |  |  |  |  |  | 
6 | CC12Nc3ccccc3C1=C(c1ccccc1)CC1C(=O)OC(=O)C12 (centres undefined) | > 100 µM | > 100 µM | > 100 µM | > 100 µM | > 100 µM | > 100 µM | > 100 µM |  |  |  |  |  |  |  |  |  |  |  |  | 
7 | CCOC(=O)c1oc2c(OC)ccc3c2c1CCC3 | > 100 µM | > 100 µM | > 100 µM | > 100 µM | > 100 µM | > 100 µM | > 100 µM |  |  |  |  |  |  |  |  |  |  |  |  | 
8 | CC[C@@]1(O)C(=O)OCc2c1cc1n(c2=O)Cc2cc3cc(Cl)ccc3nc2-1 |  | 0.00545 µM and 0.0196 µM | 1.85 µM and 2.34 µM | 0.0501 µM and 0.0636 µM | 0.144 µM and 0.461 µM | 0.298 µM and 0.843 µM | 2.22 µM | 0.125 µM and 0.249 µM | 0.00226 | 0.0327 µM and 0.162 µM | 0.0082 µM and 0.0181 µM | 0.00997 µM and 0.0271 µM | 0.00946 µM and 0.022 µM | 0.108 | 0.00335 | 0.167 | 0.00364 | 0.0562 | 2.44 | 
9 | c1ccc2c(c1)[nH]c1cnc3c4ncccc4[nH]c3c12 | > 100 µM | > 100 µM | > 100 µM | > 100 µM | > 100 µM | > 100 µM | > 100 µM |  |  |  |  |  |  |  |  |  |  |  |  | 
10 | C[C@H]1CCC/C=C/C2CC(OC(=O)CN(C)C)CC2C(OC(=O)CN(C)C)/C=C/C(=O)O1 (some centres undefined) | 34.2 µM | 1.92 µM | 34.4 µM | 0.243 µM | 0.979 µM | 2.83 µM | 8.4 µM | 0.349 µM | 0.359 | 1.71 µM | 0.0982 µM | 0.266 µM | 0.658 µM | 0.417 |  |  | 0.31 | 0.459 | 74.9 | 1.53
11 | Cc1cc(=O)oc2c(C3=NN(C=O)C(c4ccccc4)C3)c(O)ccc12 (centres undefined) | > 100 µM | > 100 µM | > 100 µM | > 100 µM | > 100 µM | > 93.6 µM | > 100 µM |  |  |  |  |  |  |  |  | > 100 |  |  | > 100 | > 95.5
12 | Cc1noc2cccc(O)c12 | > 100 µM | > 100 µM | > 100 µM | > 100 µM | > 100 µM | > 100 µM | > 100 µM |  |  |  |  |  |  |  |  |  |  |  |  | 
13 | CC1=C(C(=O)Nc2cccc(Cl)c2)C(c2ccccc2O)C(C(=O)Nc2cccc(Cl)c2)=C(C)N1 | 35.6 µM | 33.1 µM | 70.7 µM | 31.5 µM | 37.7 µM | 34.1 µM | 39.3 µM |  |  |  |  |  |  |  |  |  |  |  |  | 
14 | O/N=C1/CCC/C1=C\c1ccccc1 | > 100 µM | > 100 µM | > 100 µM | > 100 µM | > 100 µM | > 100 µM | > 100 µM |  |  |  |  |  |  |  |  |  |  |  |  | 
15 | Cc1ccccc1/C=C/c1csnn1 | > 100 µM | > 100 µM | > 100 µM | > 100 µM | > 100 µM | > 100 µM | > 100 µM |  |  |  |  |  |  |  |  |  |  |  |  | 
16 | NC1=NN(c2ccccc2)C(=O)C1C(=O)C(=O)Nc1ccc(Cl)cc1 (centres undefined) | > 100 µM | > 100 µM | > 100 µM | > 100 µM | > 100 µM | > 100 µM | > 100 µM |  |  |  |  |  |  |  |  |  |  |  |  | 
17 | CC(=O)OC1C[C@H]2C(OC(=O)c3ccccc3)C3C4(OC(C)=O)COC4C[C@H](OC(C)=O)[C@@]3(C)C(OC(C)=O)[C@H](OC(C)=O)C(=C1C)C2(C)C (some centres undefined) | > 100 µM | > 100 µM | > 100 µM | > 100 µM | > 100 µM | 79.2 µM | > 100 µM |  |  |  |  |  |  |  |  |  |  |  |  | 
